What was measured:
αvβ5 = αvβ5 (Homo sapiens, UniProt P06756+P18084); assay: Affinity for αvβ5 (preclinical data, summary statement); type: binding
αvβ3 = αvβ3 (Homo sapiens, UniProt P05106+P06756); assay: Affinity for αvβ3 (preclinical data, summary statement); type: binding
WM266 melanoma tumor = test system: WM266 melanoma tumor; set-up: species or system mice; details: mouse, in vivo
Experimental: Nude, male and female athymic mice bearing the WM266 melanoma tumor were intravenously injected with ^68Ga-Compound (˜100-150/uCi 320-480 pmol for males, ˜100-150 uCi/127-191 pmol for females, corresponding to 3.7-5.55 MBq). Animals were sacrificed in groups of four at 30 min, 1 h, 2 h and 4 h post injection. Tumor and organs of interest were collected, weighed and measured for radioactivity with a gamma-counter. The intestines and stomach were not emptied of their contents. Data were calculated as a percentage of the injected dose per gram of tissue (% ID/g).

other receptors = assay: Affinity for other receptors (preclinical data, summary statement); type: binding
[1] = Preliminary tests of FF58 resistance to radiation stress; type: physicochemical
Experimental: Additional tests were performed in order to evaluate the radiolysis also in more stressful conditions such as 40° C. storage temperature and rolling, decreasing antioxidant agent (sodium ascorbate and gentisic acid) amounts. The radiochemical purity (RCP) was monitored at release time and at expiration time by Radio-RP-HPLC.

Sequence of αvβ5 (P06756 31-889 limits assumed): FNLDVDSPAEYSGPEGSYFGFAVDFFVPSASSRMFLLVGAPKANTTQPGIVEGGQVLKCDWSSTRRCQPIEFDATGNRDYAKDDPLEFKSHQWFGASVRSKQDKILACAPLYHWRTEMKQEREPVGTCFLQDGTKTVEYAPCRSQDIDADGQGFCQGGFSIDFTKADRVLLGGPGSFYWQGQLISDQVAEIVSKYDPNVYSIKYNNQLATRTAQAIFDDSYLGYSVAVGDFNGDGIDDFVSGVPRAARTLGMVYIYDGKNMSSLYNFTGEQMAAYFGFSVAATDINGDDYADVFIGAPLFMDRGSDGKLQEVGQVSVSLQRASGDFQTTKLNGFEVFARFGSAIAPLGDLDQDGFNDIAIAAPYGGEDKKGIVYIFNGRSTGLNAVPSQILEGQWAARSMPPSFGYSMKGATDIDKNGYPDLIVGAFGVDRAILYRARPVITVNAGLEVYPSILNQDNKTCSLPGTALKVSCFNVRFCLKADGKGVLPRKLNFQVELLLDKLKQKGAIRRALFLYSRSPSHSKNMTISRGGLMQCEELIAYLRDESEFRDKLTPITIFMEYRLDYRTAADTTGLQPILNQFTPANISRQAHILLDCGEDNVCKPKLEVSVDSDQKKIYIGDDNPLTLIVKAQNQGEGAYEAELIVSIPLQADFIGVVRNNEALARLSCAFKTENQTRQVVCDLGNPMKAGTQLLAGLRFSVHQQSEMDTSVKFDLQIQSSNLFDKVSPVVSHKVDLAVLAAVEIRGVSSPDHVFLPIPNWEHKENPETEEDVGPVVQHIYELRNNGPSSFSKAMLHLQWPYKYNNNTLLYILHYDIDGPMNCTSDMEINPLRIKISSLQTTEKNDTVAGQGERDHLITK
Sequence of αvβ5 (P06756 891-1048 partner limits assumed): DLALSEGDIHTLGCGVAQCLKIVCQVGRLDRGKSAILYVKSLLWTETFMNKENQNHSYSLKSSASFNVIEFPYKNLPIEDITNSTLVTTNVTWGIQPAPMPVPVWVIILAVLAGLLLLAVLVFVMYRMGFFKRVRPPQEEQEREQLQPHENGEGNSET
Sequence of αvβ5 (P18084 24-799): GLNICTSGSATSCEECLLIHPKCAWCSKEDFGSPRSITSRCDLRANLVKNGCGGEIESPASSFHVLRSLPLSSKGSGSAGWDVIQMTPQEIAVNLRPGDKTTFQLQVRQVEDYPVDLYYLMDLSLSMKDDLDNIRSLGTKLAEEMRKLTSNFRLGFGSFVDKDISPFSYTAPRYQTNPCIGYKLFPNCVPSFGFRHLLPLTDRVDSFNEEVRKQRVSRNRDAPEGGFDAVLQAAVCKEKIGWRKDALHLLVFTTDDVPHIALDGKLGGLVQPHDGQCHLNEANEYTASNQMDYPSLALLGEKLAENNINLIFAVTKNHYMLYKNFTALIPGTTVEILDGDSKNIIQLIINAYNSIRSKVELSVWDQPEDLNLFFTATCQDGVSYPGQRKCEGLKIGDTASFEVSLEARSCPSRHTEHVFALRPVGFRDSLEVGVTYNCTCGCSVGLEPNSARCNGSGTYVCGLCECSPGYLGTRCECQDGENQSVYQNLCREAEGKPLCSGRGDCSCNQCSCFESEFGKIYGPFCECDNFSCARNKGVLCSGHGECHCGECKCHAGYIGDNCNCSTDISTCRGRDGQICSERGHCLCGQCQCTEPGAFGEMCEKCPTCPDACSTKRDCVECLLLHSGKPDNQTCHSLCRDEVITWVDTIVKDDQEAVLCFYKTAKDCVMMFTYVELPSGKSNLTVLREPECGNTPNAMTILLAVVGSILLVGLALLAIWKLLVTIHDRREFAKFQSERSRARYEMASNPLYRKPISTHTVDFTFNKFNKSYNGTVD
Sequence of αvβ3 (P06756 31-889 limits assumed): as the sequence (P06756 31-889 limits assumed) above
Sequence of αvβ3 (P06756 891-1048 partner limits assumed): as the sequence (P06756 891-1048 partner limits assumed) above
Sequence of αvβ3 (P05106 27-788): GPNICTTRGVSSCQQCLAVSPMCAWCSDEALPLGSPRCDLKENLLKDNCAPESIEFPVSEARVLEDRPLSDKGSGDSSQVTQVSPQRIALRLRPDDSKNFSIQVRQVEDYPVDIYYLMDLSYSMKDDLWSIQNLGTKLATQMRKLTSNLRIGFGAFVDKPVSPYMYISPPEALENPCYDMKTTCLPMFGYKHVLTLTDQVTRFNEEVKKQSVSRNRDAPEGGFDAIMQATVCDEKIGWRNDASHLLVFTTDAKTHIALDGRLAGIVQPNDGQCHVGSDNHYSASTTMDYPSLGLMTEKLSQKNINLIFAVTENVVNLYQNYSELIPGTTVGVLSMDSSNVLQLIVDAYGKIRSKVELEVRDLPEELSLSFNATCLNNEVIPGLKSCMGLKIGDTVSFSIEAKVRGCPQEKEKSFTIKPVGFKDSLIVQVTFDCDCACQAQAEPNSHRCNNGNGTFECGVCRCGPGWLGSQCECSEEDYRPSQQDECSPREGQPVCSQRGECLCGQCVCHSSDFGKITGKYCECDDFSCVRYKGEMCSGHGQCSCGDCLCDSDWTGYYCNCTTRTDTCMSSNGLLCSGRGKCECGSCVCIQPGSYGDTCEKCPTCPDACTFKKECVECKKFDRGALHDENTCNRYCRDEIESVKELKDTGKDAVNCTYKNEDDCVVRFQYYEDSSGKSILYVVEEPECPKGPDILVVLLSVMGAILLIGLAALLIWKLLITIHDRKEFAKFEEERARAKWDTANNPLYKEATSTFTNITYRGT

affinity for αvβ5 (αvβ5) | affinity for αvβ3 (αvβ3) | affinity for other receptors (other receptors) | SMILES | background uptake in normal organs (WM266 melanoma tumor) | excretion (uptake in the kidneys and intestine) (WM266 melanoma tumor) | resistance to the radiation stress [1]
high affinity | high affinity | absence of affinity | Cc1cc(OCCCC(=O)NCCNC(=O)[C@H](CS(=O)(=O)O)NC(=O)CN2CCN(CC(=O)O)CCN(CC(=O)O)CCN(CC(=O)O)CC2)cc(C)c1S(=O)(=O)NC(CNC(=O)CCCCc1ccc2c(n1)NCCC2)C(=O)O (single isomer, unassigned) [^68Ga-Compound, metal not drawn] | cleared moderately by 4 h | renal and partial hepatic excretion | –
– | – | – | Cc1cc(OCCCC(=O)NCCNC(=O)[C@H](CS(=O)(=O)O)NC(=O)CN2CCN(CC(=O)O)CCN(CC(=O)O)CCN(CC(=O)O)CC2)cc(C)c1S(=O)(=O)NC(CNC(=O)CCCCc1ccc2c(n1)NCCC2)C(=O)O (stereo partly drawn) [FF58] | – | – | good resistance to the radiation stress

Reference: US20240050597A1, “RADIOLABELLED ALPHA-V BETA-3 AND/OR ALPHA-V BETA-5 INTEGRINS ANTAGONIST FOR USE AS THERAGNOSTIC AGENT” (ADVANCED ACCELERATOR APPLICATIONS INTERNATIONAL SA, priority 2020, published 2024)
